Here are results for 27 compounds from US11884675B2, “Heterocyclic compounds as triggering receptor expressed on myeloid cells 2 agonists and methods of use” (AMGEN INC., priority 2020, dated 2024).

In general, EC50 refers to the concentration at which the effect is half-maximal. A high value points to weaker potency.

The experiment has as its target hTREM2 (Homo sapiens, UniProt Q9NZC2). Put plainly: TREM2 agonist potency by Syk phosphorylation (AlphaLisa) in HEK293T-hTREM2 cells, used for Examples 306-429. It is filed as cell-based. The arrangement: expressed in transfected cells; host or cells: HEK293T (HEK293T-hTREM2 cells). The settings on record: HEK293 Cells. The protocol: In vitro Measurement of Triggering Receptor Expressed on Myeloid Cells 2 activity using cellular phosphorylation of Spleen Tyrosine Kinase (“Syk”) Assays used for Examples 306-429
Measurement of TREM2 agonist potency was done using a HEK cell line expressing human TREM2 and DAP12 (HEK293T-hTREM2 cells). Binding of small molecules to, and activation of, TREM2 increases the phosphorylation of Syk. The resultant levels of Syk phosphorylation were measured using a commercial AlphaLisa reagent kit. To perform the assay, HEK-hTREM2 cells were plated at 14,000 cells per well in a 384 well plate, in 25 μL, of complete growth media and incubated at 37° C., 5% CO2 for 20-24 hours. Prior to the assay, test compounds were diluted in the 384 well plates in assay buffer and allowed to equilibrate for 30 minutes. Growth media was removed from cell plates by inversion on blotting paper, and 25 μL of test compounds in assay buffer was added to cells. Cells were incubated for 45 minutes at room temperature. After 45 minutes, assay buffer was removed and 10 μL of lysis buffer was added. Plates were shaken for 20 minutes at 350 RPM at room temperature. After complete lysis, AlphaLisa reagents were added to the lysate, and fluourescence intensity was measured using a Perkin Elmer Envision plate reader. Intensities were used to generate a standard curve, and % activation was calculated. Curve fitting was performed using Prism v9 software, log(agonist) vs response-variable slope (four parameters), and EC50s were calculated from the curve fit.
The results presented in Table 20 have been generated with the in vitro assay described above for Examples 306-429. This assay may be used to test any of the compounds described herein to assess and characterize a compound's ability to act as an agonist of TREM2.
Background: Alpha assays give light when donor and acceptor beads are brought close together.

hTREM2, sequence (Q9NZC2 19-230): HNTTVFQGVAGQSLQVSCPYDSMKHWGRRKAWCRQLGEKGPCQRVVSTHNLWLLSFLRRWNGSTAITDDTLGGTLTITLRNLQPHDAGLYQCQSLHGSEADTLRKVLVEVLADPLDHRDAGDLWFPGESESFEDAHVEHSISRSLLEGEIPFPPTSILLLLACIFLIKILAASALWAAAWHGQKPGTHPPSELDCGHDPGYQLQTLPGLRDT
hTREM2, sequence (O43914 22-113 partner): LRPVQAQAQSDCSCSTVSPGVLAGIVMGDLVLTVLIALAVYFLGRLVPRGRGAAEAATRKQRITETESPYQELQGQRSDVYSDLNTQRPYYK

Take `Cc1cc(C2CN(c3cc4nc(C)cnc4c(C45CC(C(F)(F)F)(C4)C5)n3)CCO2)ccn1` (stereo not drawn) [Example 376, 2-(2-methyl-4-pyridyl)-4-[2-methyl-5-[3-(trifluoromethyl)-1-bicyclo[1.1.1]pentanyl]pyrido[3,4-b]pyrazin-7-yl]morpholine]: the EC50 lay within 500 to 3000 nM. For the compound `COc1cc(C2CN(c3nc4nc(C)c(C)nc4c([C@]45C[C@](C(F)(F)F)(C4)C5)n3)CCO2)ccn1` (mixture of isomers) [Example 318, 4-(6,7-dimethyl-4-(3-(trifluoromethyl)bicyclo[1.1.1]pentan-1-yl)pteridin-2-yl)-2-(2-methoxypyridin-4-yl)morpholine], the EC50 is no more than 50 nM. With `Cc1cc([C@H]2C[C@H](c3cc4nc(C)c(C)cc4c(-c4ccc(F)cc4F)n3)CCO2)ccn1` (racemic) [Example 400, 5-(2,4-difluorophenyl)-2,3-dimethyl-7-[2-(2-methyl-4-pyridyl)tetrahydropyran-4-yl]-1,6-naphthyridine] the figure was no more than 50 nM. The value for `Cc1nc2nc(N3C[C@@H](c4cnn(C5CC5)c4)O[C@@H](C)C3)nc(-c3ccc(F)cc3F)c2nc1C` [Example 426, (2R,6S)-2-(1-cyclopropyl-1H-pyrazol-4-yl)-4-(4-(2,4-difluorophenyl)-6,7-dimethylpteridin-2-yl)-6-methylmorpholine] was no more than 50 nM. With `Cc1cnc2c(C34CC(C(F)(F)F)(C3)C4)nc(N3CCO[C@H](c4cnn(C5CC5)c4)C3)nc2n1` [Example 359, (R)-2-(1-cyclopropyl-1H-pyrazol-4-yl)-4-(7-methyl-4-(3-(trifluoromethyl)bicyclo[1.1.1]pentan-1-yl)pteridin-2-yl)morpholine] the figure was no more than 50 nM; with `Cc1cc([C@@H]2CN(c3cc4nc(C)cnc4c(-c4ccc(F)cc4F)n3)CCO2)ccn1` [Example 333, (R)-4-(5-(2,4-difluorophenyl)-2-methylpyrido[3,4-b]pyrazin-7-yl)-2-(2-methylpyridin-4-yl)morpholine], 500 to 3000 nM.

Turning to `Cc1nc2nc(N3C[C@@H](C)O[C@@H](c4cnn(C5CC5)c4)C3)nc(-c3ccc(F)cc3F)c2nc1C` [Example 427, (2S,6R)-2-(1-cyclopropyl-1H-pyrazol-4-yl)-4-(4-(2,4-difluorophenyl)-6,7-dimethylpteridin-2-yl)-6-methylmorpholine], the EC50 is no more than 50 nM. `Cc1cnc2c(C34CC(C(F)(F)F)(C3)C4)nc(N3C[C@@H](C)O[C@@H](c4cnn(C5CC5)c4)C3)cc2n1` (racemic) [Example 377, 2-(1-cyclopropylpyrazol-4-yl)-6-methyl-4-[2-methyl-5-[3-(trifluoromethyl)-1-bicyclo[1.1.1]pentanyl]pyrido[3,4-b]pyrazin-7-yl]morpholine]: the EC50 was in the range of 50 to 500 nM. The value for `Cc1cnc2c(-c3ccc(Cl)cc3F)nc([C@@H]3CCO[C@@H](c4cnn(C5CC5)c4)C3)nc2n1` [Example 350, 4-(4-chloro-2-fluorophenyl)-2-((2R,4R)-2-(1-cyclopropyl-1H-pyrazol-4-yl)tetrahydro-2H-pyran-4-yl)-7-methylpteridine] was 500 to 3000 nM; that for `Cc1nc2cc(N3CCO[C@H](c4cnn(C5CC5)c4)C3)nc(-c3ccc(Cl)cc3F)c2nc1C` [Example 383, (2R)-4-[5-(4-chloro-2-fluoro-phenyl)-2,3-dimethyl-pyrido[3,4-b]pyrazin-7-yl]-2-(1-cyclopropylpyrazol-4-yl)morpholine] was 50 to 500 nM; that for `Cc1cc(C2CN(c3nc(-c4cc(F)c(Cl)cc4F)c4nc(C)c(C)nc4n3)CCO2)ccn1` (stereo not drawn) [Example 352, 4-(4-(4-chloro-2,5-difluorophenyl)-6,7-dimethylpteridin-2-yl)-2-(2-methylpyridin-4-yl)morpholine] was no more than 50 nM. `Cc1nc2cc([C@H]3CCO[C@@H](c4cnn(C5CC5)c4)C3)nc(-c3ccc(F)cc3F)c2nc1C` (racemic) [Example 393, 7-[2-(1-cyclopropylpyrazol-4-yl)tetrahydropyran-4-yl]-5-(2,4-difluorophenyl)-2,3-dimethyl-pyrido[3,4-b]pyrazine] displayed an EC50 of 50 to 500 nM.

For the compound `Cc1cc(C2CN(c3cc4nc(C)cnc4c(-c4ccc(F)cc4F)n3)CCO2)ccn1` (stereo not drawn) [Example 313, 4-(5-(2,4-difluorophenyl)-2-methylpyrido[3,4-b]pyrazin-7-yl)-2-(2-methylpyridin-4-yl)morpholine], the EC50 is no more than 50 nM. The value for `Cc1cnc2c(-c3ccc(F)cc3F)nc(N3C[C@H](C)O[C@@H](c4cnn(C5CC5)c4)C3)nc2n1` (racemic) [Example 370, 2-(1-cyclopropyl-1H-pyrazol-4-yl)-4-(4-(2,4-difluorophenyl)-7-methylpteridin-2-yl)-6-methylmorpholine] was 50 to 500 nM; that for `COc1cc(C2CN(c3nc(-c4ccc(C(F)(F)F)nc4)c4nc(C)c(C)nc4n3)CCO2)ccn1` (stereo not drawn) [Example 322, 4-(6,7-dimethyl-4-(6-(trifluoromethyl)pyridin-3-yl)pteridin-2-yl)-2-(2-methoxypyridin-4-yl)morpholine] was no more than 50 nM; that for `Cc1nc2cc([C@H]3CCO[C@@H](c4cnn(C5CC5)c4)C3)nc(C34CC(C(F)(F)F)(C3)C4)c2nc1C` (mixture of isomers) [Example 392, 2,3-dimethyl-7-[2-(1-cyclopropylpyrazol-4-yl)tetrahydropyran-4-yl]-5-[3-(trifluoromethyl)-1-bicyclo[1.1.1]pentanyl]pyrido[3,4-b]pyrazine] was no more than 50 nM. As for `Cc1nc2nc(N3C[C@@H](C)O[C@@H](c4cnn(C5CC5)c4)C3)nc(-c3ccc(Cl)cc3F)c2nc1C` (racemic) [Example 373, 4-(4-(4-chloro-2-fluorophenyl)-6,7-dimethylpteridin-2-yl)-2-(1-cyclopropyl-1H-pyrazol-4-yl)-6-methylmorpholine], the EC50 was no more than 50 nM. The compound `Cc1cc([C@H]2C[C@@H](c3cc4nc(C)cnc4c(-c4ccc(Cl)cc4F)n3)CCO2)ccn1` (racemic) [Example 310, 5-(4-chloro-2-fluorophenyl)-2-methyl-7-(2-(2-methylpyridin-4-yl)tetrahydro-2H-pyran-4-yl)pyrido[3,4-b]pyrazine] had an EC50 of 50 to 500 nM. Take `Cc1nc2cc(N3CCO[C@@H](c4cnn(C5CC5)c4)C3)nc(-c3ccc(C(F)(F)F)nc3)c2nc1C` [Example 384, (2S)-2-(1-cyclopropylpyrazol-4-yl)-4-[2,3-dimethyl-5-[6-(trifluoromethyl)-3-pyridyl]pyrido[3,4-b]pyrazin-7-yl]morpholine]: the EC50 was no more than 50 nM. On to `Cc1cc([C@H]2C[C@@H](c3cc4nc(C)c(C)cc4c(-c4ccc(F)cc4F)n3)CCO2)ccn1` (racemic) [Example 399, 5-(2,4-difluorophenyl)-2,3-dimethyl-7-[2-(2-methyl-4-pyridyl)tetrahydropyran-4-yl]-1,6-naphthyridine], for which the EC50 is no more than 50 nM. `Cc1cnc2c(C34CC(C(F)(F)F)(C3)C4)nc(N3C[C@@H](C)O[C@H](c4cnn(C5CC5)c4)C3)nc2n1` [Example 405, (2R,6R)-2-(1-cyclopropyl-1H-pyrazol-4-yl)-6-methyl-4-(7-methyl-4-(3-(trifluoromethyl)bicyclo[1.1.1]pentan-1-yl)pteridin-2-yl)morpholine] had an EC50 of 50 to 500 nM. For `Cc1nc2cc(N3CCO[C@@H](c4cnn(C5CC5)c4)C3)nc(-c3ccc(Cl)cc3F)c2nc1C` [Example 382, (2S)-4-[5-(4-chloro-2-fluoro-phenyl)-2,3-dimethyl-pyrido[3,4-b]pyrazin-7-yl]-2-(1-cyclopropylpyrazol-4-yl)morpholine], the concentration giving a half-maximal response (EC50) was no more than 50 nM.

As to `Cc1cnc2c(C34CC(C(F)(F)F)(C3)C4)nc([C@@H]3CCO[C@@H](c4cnn(C5CC5)c4)C3)nc2n1` [Example 406, 2-((2R,4R)-2-(1-cyclopropyl-1H-pyrazol-4-yl)tetrahydro-2H-pyran-4-yl)-7-methyl-4-(3-(trifluoromethyl)bicyclo[1.1.1]pentan-1-yl)pteridine], the EC50 lay in the range of 500 to 3000 nM.

In turn, `Cc1nc2nc(N3CC(C)OC(c4cnn(C5CC5)c4)C3)nc(-c3ccc(F)cc3F)c2nc1C` (stereo not drawn) [Example 369, 2-(1-cyclopropyl-1H-pyrazol-4-yl)-4-(4-(2,4-difluorophenyl)-6,7-dimethylpteridin-2-yl)-6-methylmorpholine] displayed an EC50 of no more than 50 nM. `Cc1cc(C2CN(c3cc4nc(C)c(C)cc4c(-c4ccc(F)cc4F)n3)CCO2)ccn1` (stereo not drawn) [Example 346, 4-(5-(2,4-difluorophenyl)-2,3-dimethyl-1,6-naphthyridin-7-yl)-2-(2-methylpyridin-4-yl)morpholine]: the EC50 was no more than 50 nM.

As to `Cc1cc(C2CN(c3cc4nc(C)c(C)cc4c(-c4ccc(Cl)cc4F)n3)CCO2)ccn1` (stereo not drawn) [Example 344, 4-(5-(4-chloro-2-fluorophenyl)-2,3-dimethyl-1,6-naphthyridin-7-yl)-2-(2-methylpyridin-4-yl)morpholine], the concentration giving a half-maximal response (EC50) is no more than 50 nM. With `Cc1cc([C@@H]2CN(c3nc(-c4ccc(Cl)c(F)c4F)c4nc(C)c(C)nc4n3)CCO2)ccn1` [Example 364, (R)-4-(4-(4-chloro-2,3-difluorophenyl)-6,7-dimethylpteridin-2-yl)-2-(2-methylpyridin-4-yl)morpholine] the figure was no more than 50 nM.
